Reference: patent publication US20140357512A1, “HISTONE DEACETYLASE (HDAC) BIOMARKERS IN MULTIPLE MYELOMA” (priority 2013, published 2014)

Test system: human myeloma cell line MM.1S
Test: SILAC acetylated-lysine peptide profiling, HDAC inhibitor vs DMSO (light/heavy ratio)
Type: cell-based
From the text: An embodiment of the invention comprises utilizing the SILAC method in order to quantitate changes in protein expression between two or more populations of cells. The SILAC method is a technique based on mass spectrometry that detects differences in protein abundance among samples using non-radioactive isotopic labeling. The SILAC method is known in the art, and described in detail in Ong et al., “Stable Isotope Labeling by Amino Acids in Cell Culture, SILAC, as a Simple and Accurate Approach to Expression Proteomics”, Molecular & Cellular Proteomics, vol. 1, pp. 376-386 (2002), which is incorporated herein by reference in its entirety.
Briefly, the SILAC method involves growing two populations of cells in cell culture. The first population of cells is grown in growth media containing normal amino acids (“normal media”). The second population of cells is grown in media lacking a standard essential amino acid (such as lysine), but is then supplemented with a non-radioactive, isotopically labeled form of that essential amino acid (such as lysine labeled with ^13C atoms, rather than normal ^12C atoms), which is called “heavy media”. When the two populations of cells are each growing in the medium, they incorporate the amino acids into all of their proteins. The growth of cells maintained in the heavy media is no different from that in normal media. All peptides containing the heavy amino acids are heavier than their normal counterparts. The cells from each of the two populations of cells are lysed. The lysates from each of the two cell populations are then combined. The combined cell lysates are then analyzed by mass spectrometry. Pairs of chemically identical peptides of different stable isotope composition can be differentiated in a mass spectrometer due to their difference in mass. The ratio of peak intensities in the mass spectrum for such peptide pairs reflects the abundance ratio for the two proteins.
This example describes SILAC studies that were performed to compare the effects of three different HDAC inhibitors (Compound A, Compound B, and tubastatin A) to a control on a human multiple myeloma cell line. The HDAC inhibitors were also compared amongst themselves to determine differences in their effects.
A human myeloma cell line MM.1S was grown using either ^12C (light) or ^13C (heavy) lysine containing culture medium. The “heavy” cells were treated with DMSO as the control, and the “light” cells were treated with a single HDAC inhibitor at 37° C. for 6 hours. The heavy and light cells were lysed, and the lysates were mixed in 1:1 ratio and digested with the protease trypsin. The acetylated lysine containing peptides (due to the action of the HDAC inhibitor) in the digested peptide pool were captured by a non-specific anti-acetylated lysine antibody cocktail (the antibodies identify both light and heavy acetylated peptides), and subjected to mass spectrometry analysis in order to identify thousands of individual peptides.
Thousands of peptides were identified in pairs (^12C and ^13C) due to their known mass differences. The amino acid sequence and quantitative ratio (Light/Heavy) of a given peptide in two differentially treated cell lysates were then determined and annotated with their possible protein (gene) sources.
As stated above, three HDAC inhibitors (Compound A, Compound B, and Tubastatin A) were used. Thus, the SILAC method was performed three times, with a different HDAC inhibitor compared to a control each time. Accordingly, there are three pairs of quantitative data in the table below, i.e., Compound A:DMSO, Compound B:DMSO, and Tubastatin A:DMSO. A cut-off of 1.30 fold of change (increase or decrease) was then used to determine “changed” or “+” in the table, and any peptides with a fold of change less than 1.3 fold were determined to be “unchanged” or “0” in the table. Those peptides that were not identified were marked as “NA” in the table. […]

Question: What does the source list for `O=C(NO)c1cnc(NC2(c3cccc(F)c3)CCCCC2)nc1` [Compound B, 2-((1-(3-fluorophenyl)cyclohexyl)amino)-N-hydroxypyrimidine-5-carboxamide]?
Answer: L/H ratio of acetylated peptide FEK(ac)[…] (SEQ ID NO: 32) (DDX17 [132], log 2 scale, drug vs DMSO): 0.00; L/H ratio of acetylated peptide (DK(ac)WLCPLSGK (SEQ ID NO: 452), Isoform 2 of Serrate RNA effector molecule homolog [712], SRRT): 0.42 log 2; L/H ratio of acetylated peptide (DK(ac)[…] (SEQ ID NO: 456), F-box-like/WD repeat-containing protein TBL1XR1 [102], TBL1XR1): 0.86 log 2; L/H ratio of acetylated peptide ELNK(ac)ILEGR (SEQ ID NO: 2) (DLAT [466], log 2 scale, drug vs DMSO): 0.47; light to heavy ratio (L/H ratio) of acetylated peptide, log 2 scale (DLEK(ac)WQNNLLPSR (SEQ ID NO: 211), 40S ribosomal protein 515a [88], RPS15A): 0.00; light to heavy ratio (L/H ratio) of acetylated peptide, log 2 scale (DLMTDLK(ac)SEISGDLAR (SEQ ID NO: 129), Annexin A6 [418], ANXA6): 0.00; light to heavy ratio (L/H ratio) of acetylated peptide TFEK(ac)SMMNLQTK (SEQ ID NO: 354) (DNA topoisomerase 1 [642], TOP1, drug:DMSO): 0.46 log 2; L/H ratio of acetylated peptide VVK(ac)HPIFER (SEQ ID NO: 35) (DNAJB11 [247], log 2 scale, drug vs DMSO): 0.00; L/H ratio of acetylated peptide (DVFNK(ac)GYGFGMVK (SEQ ID NO: 467), Isoform 1 of Voltage-dependent anion-selective channel protein 3 [20], VDAC3): −0.73 log 2; light to heavy ratio (L/H ratio) of acetylated peptide, log 2 scale (DVK(ac)FGADAR (SEQ ID NO: 173), 60 kDa heat shock protein mitochondrial [31], HSPD1): 0.00; L/H ratio of acetylated peptide (DVTK(ac)AMDEK (SEQ ID NO: 426), Isoform 2 of 6-phosphofructokinase muscle type [329], PFKM): 0.53 log 2; L/H ratio of acetylated peptide SFDSEFK(ac)LACK (SEQ ID NO: 8) (DYNC1H1 [4283], log 2 scale, drug vs DMSO): 0.51; light to heavy ratio (L/H ratio) of acetylated peptide DTYIENEK(ac)LISGK (SEQ ID NO: 352) (Dolichyl-diphosphooligosaccharide--protein glycosyltransferase subunit 1 precursor [626], RPN1, drug:DMSO): 0.77 log 2; light to heavy ratio (L/H ratio) of acetylated peptide YNIEK(ac)DIAAHIK (SEQ ID NO: 553) (Dynein light chain 1 cytoplasmic [36], gene DYNLL1, inhibitor:DMSO): 0.00 log 2; light to heavy ratio (L/H ratio) of acetylated peptide YNIEK(ac)DIAAYIK (SEQ ID NO: 331) (Dynein light chain 2 cytoplasmic [36], DYNLL2, drug:DMSO): −0.45 log 2; L/H ratio of acetylated peptide (EFTK(ac)LEEVLTNK (SEQ ID NO: 400), Glutathione S-transferase omega-1 [152], GSTO1): −0.60 log 2; L/H ratio of acetylated peptide TSK(ac)NK(ac)SSLSR (SEQ ID NO: 14) (EP300 [1558:1560], log 2 scale, drug vs DMSO): 0.43; L/H ratio of acetylated peptide (ESESVDK(ac)VMDQK (SEQ ID NO: 404), Isoform 1 of Heterogeneous nuclear ribonucleoprotein D0 [153], HNRNPD): −0.53 log 2; light to heavy ratio (L/H ratio) of acetylated peptide, log 2 scale (EVHK(ac)[…] (SEQ ID NO: 181), Isoform 1 of L-lactate dehydrogenase A chain [232], LDHA): 0.00; light to heavy ratio (L/H ratio) of acetylated peptide, log 2 scale (EVQTNDLK(ac)EVVNK (SEQ ID NO: 223), 40S ribosomal protein S3a [182], SNORD73A, RPS3A): 0.00; light to heavy ratio (L/H ratio) of acetylated peptide YLAEK(ac)YEWDVAEAR (SEQ ID NO: 332) (Elongation factor 2 [638], EEF2, drug:DMSO): −0.40 log 2; light to heavy ratio (L/H ratio) of acetylated peptide TFK(ac)GVVDVVMK (SEQ ID NO: 550) (Elongation factor G 2 mitochondrial precursor [265], gene GFM2, inhibitor:DMSO): 0.00 log 2; light to heavy ratio (L/H ratio) of acetylated peptide KSDYIK(ac)LYVR (SEQ ID NO: 315) (Endoplasmin [410], HSP90B1, drug:DMSO): 0.00 log 2; light to heavy ratio (L/H ratio) of acetylated peptide EK(ac)[…] (SEQ ID NO: 314) (Endoplasmin[ 142], HSP90B1, drug:DMSO): 0.00 log 2; light to heavy ratio (L/H ratio) of acetylated peptide EVEEDEYK(ac)AFYK (SEQ ID NO: 261) (Endoplasmin[ 356], HSP90B1, drug:DMSO): 0.00 log 2; light to heavy ratio (L/H ratio) of acetylated peptide LMCK(ac)PIFSK (SEQ ID NO: 335) (Eukaryotic translation initiation factor 2 subunit 3 [312], EIF2S3, drug:DMSO): 0.49 log 2; light to heavy ratio (L/H ratio) of acetylated peptide SHLAK(ac)EGLYQYK (SEQ ID NO: 533) (Eukaryotic translation initiation factor 3 subunit A [68], gene EIF3A, inhibitor:DMSO): 0.00 log 2; L/H ratio of acetylated peptide (FAFK(ac)EVEVQAK (SEQ ID NO: 397), Putative rRNA methyltransferase 3 [218], FTSJ3): 0.74 log 2; L/H ratio of acetylated peptide (FEDENFHYK(ac)HDR (SEQ ID NO: 431), Peptidyl-prolyl cis-trans isomerase D [111], PPID): 0.46 log 2; L/H ratio of acetylated peptide (FGIAAK(ac)YMLDCR (SEQ ID NO: 468), Isoform 1 of Voltage-dependent anion-selective channel protein 3 [224], VDAC3): 0.43 log 2; L/H ratio of acetylated peptide (FK(ac)ECLDK (SEQ ID NO: 420), Isoform 2 of N-alpha-acetyltransferase 15 NatA auxiliary subunit [307], NAA15): 0.60 log 2; light to heavy ratio (L/H ratio) of acetylated peptide, log 2 scale (FLEQQNK(ac)[…] (SEQ ID NO: 241), Vimentin [129], VIM): 0.00
